Measured values published in ChEMBL document CHEMBL6074679, “Diastereoselective synthesis and biological evaluation of new fluorine-containing α-aminophosphonates as anticancer agents and scaffold to human urokinase plasminogen activator inhibitors” (Eur J Med Chem, 2025).

How the values were obtained:
U-87 MG = assay: Cytotoxicity against human U-87 MG cells incubated for 48 hrs by MTT assay; type: functional, cell-based, U-87MG ATCC
U-251 = assay: Cytotoxicity against human U-251MG cells incubated for 48 hrs by MTT assay; type: functional, cell-based; conditions: U-251, 48 h
U-118-MG = assay: Cytotoxicity against human U-118 MG cells incubated for 48 hrs by MTT assay; type: functional, cell-based
OVCAR-3 = assay: Cytotoxicity against human OVCAR-3 cells incubated for 48 hrs by MTT assay; type: functional, cell-based; conditions: OVCAR-3, 48 h
SK-OV-3 = assay: Cytotoxicity against human SK-OV-3 cells incubated for 48 hrs by MTT assay; type: functional, cell-based; conditions: SK-OV-3, 48 h
HepG2 = assay: Cytotoxicity against human HepG2 cells incubated for 48 hrs by MTT assay; type: functional, cell-based; conditions: HepG2, 48 h
Caco-2 = assay: Cytotoxicity against human Caco-2 cells incubated for 48 hrs by MTT assay; type: functional, cell-based; conditions: Caco-2, 48 h
HeLa = assay: Cytotoxicity against human HeLa cells incubated for 48 hrs by MTT assay; type: functional, cell-based
MDA-MB-231 = assay: Cytotoxicity against human MDA-MB-231 cells incubated for 48 hrs by MTT assay; type: functional, cell-based; conditions: MDA-MB-231, 48 h
A549 = assay: Cytotoxicity against human A549 cells incubated for 48 hrs by MTT assay; type: functional, cell-based; conditions: A549, 48 h
[1] = Cytotoxicity against human MRC5 cells incubated for 48 hrs by MTT assay; type: toxicity, cell-based
[2] = biological target: Urokinase-type plasminogen activator (Homo sapiens, UniProt P00749); assay: Inhibition of human urokinase uPA using Z-Gly-Gly-Arg-AMC as substrate by fluorescence plate reader assay

SMILES	IC50 (U-87 MG) [µM]	IC50 (U-251) [µM]	IC50 (U-118-MG) [µM]	IC50 (OVCAR-3) [µM]	IC50 (SK-OV-3) [µM]	IC50 (HepG2) [µM]	IC50 (Caco-2) [µM]	IC50 (HeLa) [µM]	IC50 (MDA-MB-231) [µM]	IC50 (A549) [µM]	IC50 at 48 h [1] [µM]	IC50 [2] [µM]
CCOP(=O)(OCC)C(N[C@H](C)c1ccccc1)c1ccc(F)cc1F (stereo partly specified)	7.68	5.59	34.6	5.56	3.24	117	2.24	4.11	11.6	35.4	16.6	–
COP(=O)(OC)C(N[C@@H](C)C(C)(C)C)c1ccc(F)cc1F (stereo partly specified)	40.7	119	87.7	66.3	131	59.5	6.44	9.85	165	1.82	82.2	–
COP(=O)(OC)C(N[C@@H](C)C(C)(C)C)c1ccccc1F (stereo partly specified)	3.27	8.95	81.2	51.7	21.9	59.6	1.3	21.4	160	55.1	34.4	–
COP(=O)(OC)C(N[C@@H](C)C(C)(C)C)c1ccc(F)cc1 (stereo partly specified)	36.3	21	38.3	81.6	6.77	6.73	18.5	6.07	190	9.82	110	516
COc1ccc([C@@H](C)NC(c2ccc(F)cc2)P(=O)(OC(C)C)OC(C)C)cc1 (stereo partly specified)	21.7	27	18.2	44.3	8.41	7.74	6.47	3.18	33.8	37.7	5.9	493
COP(=O)(OC)C(N[C@@H](C)C(C)(C)C)c1c(F)cc(F)cc1F (stereo partly specified)	61.1	144	122	13.7	7.08	92.1	72.3	4.14	83	48.6	15	720
COc1ccc([C@@H](C)NC(c2c(F)c(F)c(F)c(F)c2F)P(=O)(OC)OC)cc1 (stereo partly specified)	45.1	53.1	31.4	13.7	4.36	35.5	6.93	52.4	79.2	75.1	2.17	357
CCOP(=O)(OCC)C(N[C@H](C)c1ccc(OC)cc1)c1ccc(F)cc1F (stereo partly specified)	59.2	53.2	43.6	0.64	1.63	7.79	47.4	32.4	156	21.6	4.71	280
COc1ccc([C@@H](C)NC(c2ccccc2F)P(=O)(OC)OC)cc1 (stereo partly specified)	9.24	8.7	> 500	15.7	338	72.6	1.3	5.18	167	43.3	29.1	114
COP(=O)(OC)C(N[C@H](C)c1ccccc1)c1ccc(F)cc1F (stereo partly specified)	57	110	67.7	2.47	17.4	47.9	8.63	5.35	170	5.45	5.24	–
